From article PMC3466212, “Novel AChE Inhibitors for Sustainable Insecticide Resistance Management” (PLoS ONE, 2012)

tested on: C. pipiens Slab strain larvae; assay: Larval bioassay, Slab strain (OP-susceptible); details: fourth-instar larvae, 24 hours exposure, 300 µM
Excerpt: Three C. pipiens strains were used: the susceptible reference Slab strain, homozygous for ace-1 ^S [39], the resistant reference SR strain, carrying the genetical background of Slab but homozygous for the G119S mutation, allele ace-1 ^R [21] and the Ducos strain, carrying the genetical background of Slab but homozygous for an ace-1 duplication, with one ace-1^S and ace-1^R copy in tandem. Culex pipiens heterozygous larvae (Slab×SR) were obtained by crossing Slab males and SR females. Two A. gambiae reference strains (S molecular form) were used: the susceptible strain Kisumu, homozygous for ace-1 ^S, collected in Kenya in 1953 and maintained since then under laboratory conditions and the resistant Acerkis strain, carrying the genetical background of Kisumu but homozygous for an ace-1^R allele from a population collected in Bobo-Dioulasso, Burkina Faso [41].
Insecticidal activity was determined by performing bioassays on fourth-instar larvae as described in [42]. Each compound was dissolved in ethanol. Propoxur (CX) and chlorpyrifos (OP) were used as references. For each compound, we first tested mortality after a 24-hour exposure at 300 µM. […] Mortality data were analyzed by the log-probit program. This program takes into account natural mortality and provides lethal doses (LD) and slopes for each mortality line; it also computes resistance ratios (RR) for each LD, with 95% confidence intervals.

Row | Structure (SMILES) | Mortality at 300 µM, Slab [%]
1 | Cc1ccc(C=C2C(=O)NC(=O)N(c3ccc(F)cc3)C2=O)o1 [PTF-17] | 15
2 | Cc1ccc(C=C2C(=O)NC(=O)N(c3ccccc3F)C2=O)o1 [PTF-18] | 0
3 | Cc1ccc(C=C2C(=O)NC(=O)N(CCc3ccc(F)cc3)C2=O)o1 [PTF-19] | 0
4 | Cc1ccc(C=C2C(=O)NC(=O)N(c3cccc(Cl)c3Cl)C2=O)o1 [PTF-21] | 0
5 | Cc1ccc(C=C2C(=O)NC(=O)N(c3cccc(Br)c3)C2=O)o1 [PTF-22] | 68
6 | CCCCN1C(=O)C(=Cc2ccc(C)o2)C(=O)NC1=S [PTF-23] | 24
7 | Cc1ccc(N2C(=O)C(=Cc3ccc(C)o3)C(=O)NC2=S)cc1 [PTF-24] | 0
8 | CCc1ccc(N2C(=O)C(=Cc3ccc(C)o3)C(=O)NC2=S)cc1 [PTF-26] | 100
9 | COc1ccc(N2C(=O)C(=Cc3ccc(C)o3)C(=O)NC2=S)cc1 [PTF-27] | 12
10 | COc1ccccc1N1C(=O)C(=Cc2ccc(C)o2)C(=O)NC1=S [PTF-28] | 0
11 | COc1ccc(N2C(=O)C(=Cc3ccc(C)o3)C(=O)NC2=S)c(OC)c1 [PTF-30] | 25
12 | Cc1ccc(C=C2C(=O)NC(=S)N(c3ccc(C(=O)O)cc3)C2=O)o1 [PTF-31] | 20
13 | Cc1ccc(C=C2C(=O)NC(=S)N(CC3CCCO3)C2=O)o1 (centres unmarked) [PTF-32] | 0
14 | Cc1ccc(C=C2C(=O)NC(=S)N(c3ccc(F)cc3)C2=O)o1 [PTF-33] | 16
15 | Cc1ccc(C=C2C(=O)NC(=S)N(CCc3ccc(F)cc3)C2=O)o1 [PTF-34] | 0
16 | Cc1ccc(C=C2C(=O)NC(=S)N(c3ccc(Cl)cc3)C2=O)o1 [PTF-35] | 5
17 | Cc1ccc(C=C2C(=O)NC(=S)N(c3cccc(Cl)c3)C2=O)o1 [PTF-36] | 30
18 | CCOP(=O)(OCC)Oc1ccc([N+](=O)[O-])cc1 [Paraoxon, reference compound] | 100

tested on: C. pipiens SR strain larvae; assay: Larval bioassay, SR strain (OP-resistant); details: fourth-instar larvae, 24 hours exposure, 300 µM
Excerpt: Three C. pipiens strains were used: the susceptible reference Slab strain, homozygous for ace-1 ^S [39], the resistant reference SR strain, carrying the genetical background of Slab but homozygous for the G119S mutation, allele ace-1 ^R [21] and the Ducos strain, carrying the genetical background of Slab but homozygous for an ace-1 duplication, with one ace-1^S and ace-1^R copy in tandem. Culex pipiens heterozygous larvae (Slab×SR) were obtained by crossing Slab males and SR females.
Insecticidal activity was determined by performing bioassays on fourth-instar larvae as described in [42]. Each compound was dissolved in ethanol. Propoxur (CX) and chlorpyrifos (OP) were used as references. For each compound, we first tested mortality after a 24-hour exposure at 300 µM. […] Mortality data were analyzed by the log-probit program.

Row | Structure (SMILES) | Mortality at 300 µM, SR [%]
19 | Cc1ccc(C=C2C(=O)NC(=O)N(c3ccc(F)cc3)C2=O)o1 [PTF-17] | 90
20 | Cc1ccc(C=C2C(=O)NC(=O)N(c3ccccc3F)C2=O)o1 [PTF-18] | 0
21 | Cc1ccc(C=C2C(=O)NC(=O)N(CCc3ccc(F)cc3)C2=O)o1 [PTF-19] | 0
22 | Cc1ccc(C=C2C(=O)NC(=O)N(c3cccc(Cl)c3Cl)C2=O)o1 [PTF-21] | 0
23 | Cc1ccc(C=C2C(=O)NC(=O)N(c3cccc(Br)c3)C2=O)o1 [PTF-22] | 97
24 | CCCCN1C(=O)C(=Cc2ccc(C)o2)C(=O)NC1=S [PTF-23] | 60
25 | Cc1ccc(N2C(=O)C(=Cc3ccc(C)o3)C(=O)NC2=S)cc1 [PTF-24] | 0
26 | CCc1ccc(N2C(=O)C(=Cc3ccc(C)o3)C(=O)NC2=S)cc1 [PTF-26] | 65
27 | COc1ccc(N2C(=O)C(=Cc3ccc(C)o3)C(=O)NC2=S)cc1 [PTF-27] | 15
28 | COc1ccccc1N1C(=O)C(=Cc2ccc(C)o2)C(=O)NC1=S [PTF-28] | 0
29 | COc1ccc(N2C(=O)C(=Cc3ccc(C)o3)C(=O)NC2=S)c(OC)c1 [PTF-30] | 25
30 | Cc1ccc(C=C2C(=O)NC(=S)N(c3ccc(C(=O)O)cc3)C2=O)o1 [PTF-31] | 20
31 | Cc1ccc(C=C2C(=O)NC(=S)N(CC3CCCO3)C2=O)o1 (centres unmarked) [PTF-32] | 0
32 | Cc1ccc(C=C2C(=O)NC(=S)N(c3ccc(F)cc3)C2=O)o1 [PTF-33] | 77
33 | Cc1ccc(C=C2C(=O)NC(=S)N(CCc3ccc(F)cc3)C2=O)o1 [PTF-34] | 0
34 | Cc1ccc(C=C2C(=O)NC(=S)N(c3ccc(Cl)cc3)C2=O)o1 [PTF-35] | 49
35 | Cc1ccc(C=C2C(=O)NC(=S)N(c3cccc(Cl)c3)C2=O)o1 [PTF-36] | 40
36 | CCOP(=O)(OCC)Oc1ccc([N+](=O)[O-])cc1 [Paraoxon, reference compound] | 100

target: WT AChE1 (Culex pipiens, UniProt Q86GC8); assay: AChE assay (Ellman), dose-response on recombinant WT AChE1; type: biochemical; design: made in house; host or cells: Drosophila S2 cells; details: recombinant wild-type C. pipiens AChE1; 15 min incubation; acetylthiocholine; read-out: IC50 WT
Experimental: (§1) Production of C. pipiens WT and mutated AChE1s in Drosophila S2 cells was already described. The chemical library (ChemBridge, 3,000 compounds) screening was performed in duplicate on G119S recombinant AChE1. Chemicals were made soluble in ethanol or dimethylsulphoxide (DMSO), and then diluted at 300 µM in ethanol for storage. Compounds (30 µM final concentration) were incubated for 15 min at room temperature with 100 µl of G119S recombinant AChE1 then 100 µl of substrate (acetylthiocholine, 1.6 mM, Sigma-Aldrich) was added and the residual activity was quantified by measuring the optical density at 412 nm, as described by Ellman et al.. PTF analogs were analyzed in dose-response experiments (10-fold serial dilutions from 3 mM to 30 nM), using recombinant WT and G119S AChE1 or mosquito head extracts (heads cut from frozen mosquitoes, homogenized in 400 µl PB containing 1% Triton X-100 and cleared by centrifugation at 9,000×g for 3 min). Depending on compound availability, two to five replicates were performed with distinct batches of enzyme. […] IC50 was estimated by nonlinear least square regression. IC50 was also measured on AChE1 from susceptible and resistant mosquito larvae extracts.

Row | Structure (SMILES) | IC50 [µM]
37 | Cc1ccc(C=C2C(=O)NC(=O)N(c3ccc(F)cc3)C2=O)o1 [PTF-17] | 5
38 | Cc1ccc(C=C2C(=O)NC(=O)N(c3ccccc3F)C2=O)o1 [PTF-18] | 5.3
39 | Cc1ccc(C=C2C(=O)NC(=O)N(CCc3ccc(F)cc3)C2=O)o1 [PTF-19] | 3.3
40 | Cc1ccc(C=C2C(=O)NC(=O)N(c3cccc(Cl)c3Cl)C2=O)o1 [PTF-21] | 5
41 | Cc1ccc(C=C2C(=O)NC(=O)N(c3cccc(Br)c3)C2=O)o1 [PTF-22] | 1.5
42 | CCCCN1C(=O)C(=Cc2ccc(C)o2)C(=O)NC1=S [PTF-23] | 12.1
43 | Cc1ccc(N2C(=O)C(=Cc3ccc(C)o3)C(=O)NC2=S)cc1 [PTF-24] | 1.3
44 | CCc1ccc(N2C(=O)C(=Cc3ccc(C)o3)C(=O)NC2=S)cc1 [PTF-26] | 9
45 | COc1ccc(N2C(=O)C(=Cc3ccc(C)o3)C(=O)NC2=S)cc1 [PTF-27] | 1.7
46 | COc1ccccc1N1C(=O)C(=Cc2ccc(C)o2)C(=O)NC1=S [PTF-28] | 2.1
47 | COc1ccc(N2C(=O)C(=Cc3ccc(C)o3)C(=O)NC2=S)c(OC)c1 [PTF-30] | 2.8
48 | Cc1ccc(C=C2C(=O)NC(=S)N(c3ccc(C(=O)O)cc3)C2=O)o1 [PTF-31] | 0.5
49 | Cc1ccc(C=C2C(=O)NC(=S)N(CC3CCCO3)C2=O)o1 (centres unmarked) [PTF-32] | 2.1
50 | Cc1ccc(C=C2C(=O)NC(=S)N(c3ccc(F)cc3)C2=O)o1 [PTF-33] | 490
51 | Cc1ccc(C=C2C(=O)NC(=S)N(CCc3ccc(F)cc3)C2=O)o1 [PTF-34] | 24
52 | Cc1ccc(C=C2C(=O)NC(=S)N(c3ccc(Cl)cc3)C2=O)o1 [PTF-35] | 8.7
53 | Cc1ccc(C=C2C(=O)NC(=S)N(c3cccc(Cl)c3)C2=O)o1 [PTF-36] | 11.8

target: T1, G119S AChE1 (Culex pipiens, UniProt Q86GC8, G247S); assay: biochemical; type: biochemical; details: 30 µM final concentration, duplicate, G119S recombinant AChE1
T1 construct: made in house; host or cells: Drosophila S2 cells
Experimental: as §1, with “Compounds (30 µM final concentration) were incubated for 15 min at room temperature with 100 µl of G119S recombinant AChE1 then 100 µl of substrate (acetylthiocholine, 1.6 mM, Sigma-Aldrich) was added and the residual activity was quantified by measuring the optical density at 412 nm, as described by Ellman et al..” left out

Row | Structure (SMILES) | inhibition in primary screen (hydrolysis of acetylthiocholine)
54 | Cc1ccc(N2C(=O)C(=Cc3ccc(C)o3)C(=O)NC2=S)cc1 [PTF-24] | 80–87%

same assay, conditions: recombinant OP-insensitive G119S C. pipiens AChE1; 15 min incubation; acetylthiocholine; read-out: IC50 G119S

Row | Structure (SMILES) | IC50 [µM]
55 | Cc1ccc(C=C2C(=O)NC(=O)N(c3ccc(F)cc3)C2=O)o1 [PTF-17] | 8
56 | Cc1ccc(C=C2C(=O)NC(=O)N(c3ccccc3F)C2=O)o1 [PTF-18] | 1.8
57 | Cc1ccc(C=C2C(=O)NC(=O)N(CCc3ccc(F)cc3)C2=O)o1 [PTF-19] | 3.7
58 | Cc1ccc(C=C2C(=O)NC(=O)N(c3cccc(Cl)c3Cl)C2=O)o1 [PTF-21] | 4.8
59 | Cc1ccc(C=C2C(=O)NC(=O)N(c3cccc(Br)c3)C2=O)o1 [PTF-22] | 1.9
60 | CCCCN1C(=O)C(=Cc2ccc(C)o2)C(=O)NC1=S [PTF-23] | 15.5
61 | Cc1ccc(N2C(=O)C(=Cc3ccc(C)o3)C(=O)NC2=S)cc1 [PTF-24] | 1.9
62 | CCc1ccc(N2C(=O)C(=Cc3ccc(C)o3)C(=O)NC2=S)cc1 [PTF-26] | 16
63 | COc1ccc(N2C(=O)C(=Cc3ccc(C)o3)C(=O)NC2=S)cc1 [PTF-27] | 5.9
64 | COc1ccccc1N1C(=O)C(=Cc2ccc(C)o2)C(=O)NC1=S [PTF-28] | 1.8
65 | COc1ccc(N2C(=O)C(=Cc3ccc(C)o3)C(=O)NC2=S)c(OC)c1 [PTF-30] | 1.3
66 | Cc1ccc(C=C2C(=O)NC(=S)N(c3ccc(C(=O)O)cc3)C2=O)o1 [PTF-31] | 0.2
67 | Cc1ccc(C=C2C(=O)NC(=S)N(CC3CCCO3)C2=O)o1 (centres unmarked) [PTF-32] | 2.3
68 | Cc1ccc(C=C2C(=O)NC(=S)N(c3ccc(F)cc3)C2=O)o1 [PTF-33] | 22
69 | Cc1ccc(C=C2C(=O)NC(=S)N(CCc3ccc(F)cc3)C2=O)o1 [PTF-34] | 38
70 | Cc1ccc(C=C2C(=O)NC(=S)N(c3ccc(Cl)cc3)C2=O)o1 [PTF-35] | 8.7
71 | Cc1ccc(C=C2C(=O)NC(=S)N(c3cccc(Cl)c3)C2=O)o1 [PTF-36] | 8
